Results taken from EP0833161A1, “Method for maintaining a continuously-saturated level of ascorbic acid in a patient's body” (Ordman, Alfred B., priority 1996, dated 1998).

How the values were obtained:
[1] = Effect of single daily dose of vitamin C on total 24-hour urinary excretion (DCIP assay); type: in vivo, human
Method: In order to determine how daily dosages related to total excretion and whether high daily doses would alter the rate of excretion after a week, groups of test subjects took either 0, 0.25, 1, or 2 gram doses of vitamin C at 8 am daily for 8 consecutive days. All urine was collected and pooled on day 1 and on day 8. The concentration was assayed and the total amount of vitamin C excreted during the 24-hour period was determined, as shown in Fig. 1.
(§1) Vitamin C was assayed by the 2,6-dichlorophenolindophenol (DCIP) assay (see Omaye, T. S. et al. "Selected Methods for the Determination of Ascorbic Acid in Animal Cells," in Methods Enzymol.: Vitamins and Coenzymes, Vol. 62, edited by McCormick, D. B. and L. D. Wright, New York, Academic Press, 1979, pp. 3-11). Samples diluted to 0-40 µg ascorbic acid with 5% phosphoric acid were assayed in a citrate/acetate buffer by reaction with DCIP, and the color at 520 nm compared with standards. Samples were assayed in duplicate and each experiment was repeated.
Vitamin C was administered daily to five individuals at 8 am for eight consecutive days. All urine for each individual was collected during the first and last 24-hour periods and the total amount of vitamin C excreted in the urine was determined by DCIP assay.

[2] = Rate of urinary excretion of a single daily dose of vitamin C, every micturition assayed (DCIP assay); type: in vivo, human
Method: In order to determine how rapidly vitamin C is excreted, several individuals took 2 grams of vitamin C daily (single dose) for 8 consecutive days, and collected samples and measured the volume of every micturition during the first and last day. The experiment was repeated with the same individuals after a seven-day rest. Each sample was analyzed to determine the time period, concentration range, and total urinary excretion of vitamin C. The results arc shown in Fig. 2 for three representative individuals. Vitamin C concentration in the urine increased after 4 hours from time of intake and remained elevated for a total of 12 hours, consistent with the hypothesis that vitamin C levels in the body are not elevated for an entire 24 hour period by a single daily dose.
as §1
Fig. 2 illustrates the effect of two grams of daily single-dose vitamin C taken orally for eight days, followed by six days with no intake, and then by eight more days of two grams taken daily in a single dose. Each micturition during the first and last 24 hours of each eight-day period was collected and assayed to determine the total mass of vitamin C excreted. Figures 2a-2c represent excretion from three different individuals.

[3] = Effect of twice-daily doses of vitamin C on urinary output (DCIP assay); type: in vivo, human; details: for urinary excretion: one individual
Method: Twice-daily doses of 500 mg were sufficient to elevate vitamin C in the urine continuously as shown for 5 individuals in Fig. 4.
as §1
In order to achieve such sustained presence of vitamin C in urine, it is instead necessary to take it at least twice daily, as shown in Fig. 3. Different dosages (from 0.25 to 2.0 grams) of vitamin C were administered to a representative subject every 12 hours, at times 0 and 12 hour in the figure, on four separate days of a four week period. The mass of vitamin C present in the urine was measured at every micturition. The individual was tested one day of the week for four consecutive weeks with progressively increasing dosages followed by six-day periods of rest. As illustrated by the figure, taking at least 500 mg twice daily led to continuously elevated levels of vitamin C in the urine tested.
Each micturition during the entire 24 hours was collected and the total mass of vitamin C excreted by each subject was measured by the DCIP assay. In yet another experiment, two daily doses of 0.5 grams of vitamin C were taken daily for 8 days, then no pills were taken for a week, and then 0.5 g daily were taken again for another 8 days. Each micturition during the first and last 24 hr of each 8 day period was collected and assayed to determine the total mass of vitamin C excreted.

[4] = 500 mg dose, average person, within the first 12 hr after ingestion; cited from earlier work

SMILES: O=C1O[C@H]([C@@H](O)CO)C(O)=C1O [vitamin C, ascorbic acid]
- rate of urinary excretion versus daily dose ([1]; 0, 0.25, 1 or 2 gram doses at 8 am daily, 24-hour pooled urine): increased with increasing daily doses
- intake rate at which a consistently elevated urinary level (greater than SD) begins ([1]; in vivo): 250-500 mg per day
- one-time dose necessary for detectable excretion ([1]; in vivo): 500 mg
- vitamin C levels in urine ([1]; in vivo): no detectable vitamin C levels in urine
- amount excreted on day 8 compared with day 1 ([1]; single daily dose for 8 consecutive days, 24-hour pooled urine): similar
- share of ingested vitamin C detected in the urine ([2]; 2 grams daily, single dose): only a small percentage
- excretion pattern, first versus last day ([2]; 2 grams daily, single dose, 8 consecutive days): No noticeable difference
- time from intake after which vitamin C concentration in the urine increased ([2]; in vivo): 4 h
- total time vitamin C concentration in the urine remained elevated ([2]; in vivo): 12 h
- urinary excretion ([3]; 250 mg every 12 hours): did not cause detectable excretion in amounts exceeding normal quantities
- urinary excretion ([3]; 500 mg or higher (up to 2000 mg) every 12 hours): continuously-detectable elevated levels of excretion
- vitamin C in the urine ([3]; 500 mg twice daily for a week, first and last day): remains continuously elevated
- fraction of dose absorbed into the body [4]: about 60%
